Molecules are shown by their SMILES. Where a name gives a salt, the structure may show the parent alone.

Assay [1] has as its system PC-3 cell Akt (Ser473) phosphorylation. As to the kind of experiment: Inhibition of phosphorylation level of PC-3 cell Akt (Ser473), Cisbio HTRF phospho Akt (Ser473) cell-based assay. More on the design: species or system human. To be noted: hEGF 100 ng/ml stimulation, 1st and 2nd test where printed. The procedure: The inhibitory activity of the compounds of present invention to the phosphorylation level of PC-3 cell Akt (Ser473) is studied by using Cisbio HTRF phospho Akt (Ser473) cell-based assay test kit.
Cell strain: PC-3 prostate cancer cells line (cell bank of Chinese Academy of Sciences) is cultured by using culture medium (F12K+10% FBS).
hEGF is prepared as stock solution of 100 ug/ml with 10 mM acetic acid, and the stock solution is diluted to 200 ng/ml with serum-free medium, added 50 ul to each well to be stimulated.
b) Preparation of Complete Lysate • 4×Lysis Buffer is diluted 4 times with ddH2O to prepare 1×Lysis Buffer. • 100×Blocking Reagent is diluted 100 times with 1×Lysis Buffer.
c) Preparation of Detection Liquid • 20×Anti-Phospho-Akt is diluted 20 times with Detection Buffer. • 20×Anti-Akt is diluted 20 times with Detection Buffer.
The compounds are diluted with DMSO, and the working concentration of compounds is 100 times of detection concentration.
Cells in logarithmic growth phase are collected, counted, and resuspended with complete culture medium;
The cell concentration is adjusted to appropriate concentration, and cell suspension is inoculated into 96 well plates at 50 μl per well;
Cells are incubated for more than 4 h in the 5% CO2 incubator at temperature of 37° C., relative humidity of 100%;
Cell plate is removed from the incubator. The cell suspension is aspirated gently, and 50 ul serum-free F12K medium is quickly added, then the cell plate is placed into the incubator to culture overnight.
The compounds are diluted in a linear gradient with DMSO.
0.5 ul compounds is added into the test well, mixed on oscillators, and incubated at room temperature for 2 hours.
Proportioned hEGF solution is added to test well at 50 μl per well, and the final concentration is 100 ng/ml. serum-free medium is added into The negative control well at 50 μl per well.
The solution is mixed on oscillator and incubated at room temperature for 2 hours.
The liquid in 96 well plates is aspirated by multichannel pipette or the supernatant is discarded gently. The proportioned complete lysate is added quickly at 50 μl per well.
The solution is mixed on oscillator and lysed at room temperature for 30 min.
16 μl cell lysate is transferred from the 96 well plates to white low volume 384 well plates, and the proportioned two pairs of detection antibody are added. The solution is mixed on oscillator, and incubated at room temperature for 4 hours to detect the readings.
Background: TR-FRET usually uses a lanthanide donor and a delayed reading to cut background.

Assay [2] concerns U87MG human glioblastoma Multiforme cell strain. As to the kind of experiment: Antitumor cell proliferation in vitro, CCK-8 detection kit, U87MG. The assay is classed as cell-based. The settings on record: U-87 MG, 72 h, U-87MG cells, 1st and 2nd test where printed. On the procedure: (§1) The half inhibitory concentration IC50 of proliferation of three kinds of tumor cell strain (U87MG, PC-3, BT474) for 12 candidate compounds of the present invention is detected by CCK-8 detection kits.
U87MG human glioblastoma Multiforme cell strain (cell bank of Chinese Academy of Sciences)
(§2) The studied compounds are dissolved by DMSO to make the final concentration 10 mM.
(§3) • a) Collecting the cells in logarithmic phase, counting, and resuspending the cells with complete medium. • b) Adjusting the concentration of cells to a suitable concentration, inoculating in 96 well plates, each well is inoculated to 100 μl cell suspension.
(§4) c) incubating cells for 24 hours in a 5% CO2 incubator at temperature of 37° C., under the condition of 100% relative humidity.
(§5) a) The cells in logarithmic phase is collected, counted, resuspended with complete medium. The concentration of cells is adjusted to a suitable concentration (determined in accordance with the optimizable test results of cell density), and the cells is inoculated in 96 well plates, wherein each well is inoculated 100 μl cell suspension, Cells are incubated for 24 hours in 5% CO2 incubator at temperature of 37° C. under the condition of 100% relative humidity.
(§6) b) The test compounds are diluted to 500 μM with culture medium, then diluted in series eight times. […] as 25 μl/well. The final concentrations of the compounds are diluted from 100 μM to 0 μM, with 4 times dilution, and there are a total of 10 concentration points.
(§7) c) Cells are incubated for 72 hours in 5% CO2 incubator at temperature of 37° C. under the condition of 100% relative humidity.
(§8) d) The culture medium is aspirated and discarded, and complete medium containing 10% CCK-8 is incubated in a incubator at 37° C. for 2˜4 hours.
(§9) e) After shocking gently, the absorbance of the culture medium is measured at 450 nm wavelength on SpectraMax M5 Microplate Reader, with the absorbance at 650 nm as reference, to calculate the inhibition rate.

Assay [3] deals with BT474 human breast cancer cell strain. As to the kind of experiment: Antitumor cell proliferation in vitro, CCK-8 detection kit, BT474. The assay is classed as cell-based. The settings on record: Homo sapiens, BT-474, 72 h, BT-474 cells, 1st and 2nd test where printed. The procedure:
as §1
BT474 human breast cancer cell strain (cell bank of Chinese Academy of Sciences) Reagents and materials:
as §2, §3, §4, §5, §6, §7, §8, §9
A general note: Tetrazolium assays rely on reduction of a dye to a coloured formazan, in cell work by metabolically active cells.

The target in assay [4] is T1, PDGFR β enzyme (Homo sapiens, UniProt P09619).
T1 construct: purchased Invitrogen P3082
As to the kind of experiment: Inhibitory activity to PDGFR β enzyme, HTRF kinEASE TK kit. Format: biochemical. In a few lines:
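Recombinant human PDGFRβ phosphorylating TK-substrate in kinase buffer containing MgCl2, MnCl2, DTT and SEB, with ATP. Phosphorylation detected by HTRF using TK-Ab-Cryptate and Sa-XL665.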

T1 sequence (P09619 33-1106): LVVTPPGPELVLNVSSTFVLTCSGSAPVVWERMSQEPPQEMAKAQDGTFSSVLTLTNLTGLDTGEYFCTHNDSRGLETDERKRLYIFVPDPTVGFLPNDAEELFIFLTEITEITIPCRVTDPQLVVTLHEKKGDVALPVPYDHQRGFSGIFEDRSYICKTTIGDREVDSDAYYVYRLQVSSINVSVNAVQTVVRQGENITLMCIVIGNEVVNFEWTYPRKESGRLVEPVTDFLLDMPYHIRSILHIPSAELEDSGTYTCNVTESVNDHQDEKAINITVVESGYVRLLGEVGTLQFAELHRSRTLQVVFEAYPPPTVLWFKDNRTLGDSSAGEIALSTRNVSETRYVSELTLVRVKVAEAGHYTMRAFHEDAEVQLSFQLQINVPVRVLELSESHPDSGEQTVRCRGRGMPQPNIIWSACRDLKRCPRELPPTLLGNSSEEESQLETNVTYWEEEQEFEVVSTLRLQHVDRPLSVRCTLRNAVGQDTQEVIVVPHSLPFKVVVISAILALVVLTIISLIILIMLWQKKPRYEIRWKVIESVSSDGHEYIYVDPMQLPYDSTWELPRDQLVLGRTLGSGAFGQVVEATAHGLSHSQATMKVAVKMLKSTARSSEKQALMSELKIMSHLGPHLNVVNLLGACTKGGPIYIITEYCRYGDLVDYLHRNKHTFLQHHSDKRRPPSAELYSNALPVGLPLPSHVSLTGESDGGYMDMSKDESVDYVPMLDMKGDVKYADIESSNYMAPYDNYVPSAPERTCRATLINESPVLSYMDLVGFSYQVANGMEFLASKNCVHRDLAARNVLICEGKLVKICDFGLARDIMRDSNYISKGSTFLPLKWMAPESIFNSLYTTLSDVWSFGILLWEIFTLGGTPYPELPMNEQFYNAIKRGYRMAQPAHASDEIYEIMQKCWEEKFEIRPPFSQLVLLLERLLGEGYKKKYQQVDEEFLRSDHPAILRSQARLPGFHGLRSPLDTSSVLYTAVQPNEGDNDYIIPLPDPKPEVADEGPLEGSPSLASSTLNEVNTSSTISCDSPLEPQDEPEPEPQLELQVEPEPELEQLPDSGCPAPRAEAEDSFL

As for `c1ccc(-c2ccnc3ccc(Nc4nc(NC5CC5)c5nc[nH]c5n4)cc23)cc1` [MED1007-91, N6-cyclopropyl-N2-(4-phenylquinoline-6-yl)-9H-purine-2,6-diammonium salt dihydrate di-methanesulfonate], the IC50 stood at 74 nM in assay [1] (PC-3 cells, dihydrate di-methanesulfonate); 8150 nM in assay [2]; 523 nM in assay [3]. Further, the “Inhibition rate % (PDGFR β)” value in assay [4] (1 μM, dihydrate di-methanesulfonate) was −10.96%. Moreover, the inhibition at 10 µM in assay [4] (10 μM, read-out: Inhibition rate % (PDGFR β)) amounted to 13.8%.
`COC[C@H]1OC(=O)c2coc3c2[C@@]1(C)C1=C(C3=O)[C@@H]2CCC(=O)[C@@]2(C)C[C@H]1OC(C)=O` [Wortmannin, reference compound]: the IC50 in assay [1] (Homo sapiens, PC-3, PC-3 cells) turned out to be 7.41 nM; in assay [3], 5210 nM.

As usually defined, the IC50 is the midpoint of a concentration-inhibition curve. Low values mean higher potency, high ones lower potency. For orientation: inhibition means the relative decrease from the control value, in per cent.

Source of the values: patent US9718823B2, “2, 6-Di-nitrogen-containing substituted purine derivative, and preparation method, pharmaceutical composition and use thereof” (Zhejiang Medicine Co., Ltd. Xinchang Pharmaceutical Factory, priority 2013, dated 2017).
